# In paper PMC8128909, “Characterization of a new bifunctional endo-1,4-β-xylanase/esterase found in the rumen metagenome” (Scientific Reports, 2021):
# System: T1, XylR
# T1 construct: without predicted 21-residue signal peptide; His6 (C-terminal as printed), pET28a(+), E. coli BL21(DE3); 75 kDa on SDS-PAGE; motifs 159WDVVNEA163, 280TELD283, 624GLSMG628
# Assay: spectrophotometric p-nitrophenol release at […] nm, Michaelis-Menten fit
# Type: biochemical, uncultured bacterium (Nelore cattle rumen metagenome)
# Details: 0.1 M sodium acetate pH 6.5, 37 °C; substrate 0.75 to 5 mM; esterase activity
structure (smiles),measurement,value
"CC(=O)Oc1ccc([N+](=O)[O-])cc1 [C2, p-nitrofenyl acetate]",Km,2300 ± 400 µM
